Measured values: US20250000846A1, “METHODS OF TREATMENT OR PREVENTION OF ACUTE BRAIN OR NERVE INJURIES” (Annovis Bio, Inc., priority 2015, published 2025)

Legend:
[1] = test system: retinal neurons; test: Retinal ischemia-reperfusion (IR), Cell Death ELISA of retina; format: in vivo, Sprague-Dawley rats; settings: posiphen tartrate 30 mg/kg oral gavage once per day
From the text: IR is a well-established experimental model of glaucoma as well as neuronal cell death in other retinal diseases. IR was induced on one eye of each rat while the opposite eye served as an internal control. Transient IR was induced by raising the intraocular pressure by a controlled micro-injection of saline into the anterior chamber of the eye. This approach is well established to induce large amounts of apoptotic cell death in the retina, beginning within hours after the reperfusion and continuing for several days, leading to a loss of about 50% of the retina. There would also be a dramatic and persistent increase in the permeability of the vasculature of the inner retina during this period, which may lead to edema.
Adult male Sprague-Dawley rats (approx. 450 g, n=8) were housed under normal 12 hr light/dark conditions with free access to food and water. Rats were given posiphen tartrate (30 mg/kg body weight, delivered in 15 mg/ml water) or an equivalent volume of water (vehicle) by oral gavage once per day. Gavage was performed daily over three days and then on the fourth day IR was induced in anesthetized rats (ketamine:xylazine, 100:10 mg/kg, i.p.). […] The retinas were homogenized and fractionated to obtain a cytoplasmic sample which was assessed for nucleosome content in duplicate, using the Cell Death ELISA (Roche). Data were averaged and expressed as optical density (OD). […]

[2] = test system: TH+ terminals in the striatum; test: Fluid percussion injury (mild TBI), tyrosine hydroxylase (TH) immunoreactivity in striatum; format: in vivo, rats
Method: Rats were subjected to fluid percussion injury (FPI) or sham operation to one side of the brain using the same procedures described in Griesbach et al (Brain Research, 1288: 105-115,2009, PMCID:PMC2735616) and Hutson et al (J. Neurotrauma, Jun. 6, 2011; PMID:21644813). […] About 5 to 30 minutes after FPI or sham operation, the rats were administered with saline or posiphen tartrate at a dose of 2.5, 5 or 10 mg/kg body weight intraperitoneally and also daily for the next 28 to 32 days. At 90 minutes after the last saline or posiphen treatment, all the rats were sacrificed and sections of the brain of each of the rats were stained for tyrosine hydroxylase (TH), wherein TH stains only live cells. The amounts of TH immunoreactivity in the whole striatum of the brain slices were measured, Stereological analysis of dopaminergic (DA) neurons in the substantia nigra was conducted to determine whether posiphen would block the TBI-induced loss of DA neurons ipsilateral and contralateral to the FPI injury, using procedures described in Johnson et al (Brain Pathol. Jun. 29, 2011, doi: 10.1111/j.1750-3639.2011.00513.x) and Hoshino et al (Neurol. Med. Chir. (Tokyo), 2003 April; 43 (4): 165-74). The groups of rats included the rats with LOC above/at the median value. In FIG. 2, the sham operated group was compared with the vehicle group with two-way ANOVA, Bonferroni comparisons, wherein *p<0.05. In FIG. 3, the vehicle group was compared with the posiphen-treatment groups with one-way ANOVA, Bonferroni comparisons, wherein ^#p<0.05.

[3] = test system: IBA-1+ microglia cells in the substantia nigra; test: Fluid percussion injury, microglial activation by diameter of IBA-1-positive cells in substantia nigra; format: in vivo, rats; settings: 10 mg/kg
Method: Because FPI can induce microglial activation according to Hutson et al (J. Neurotrauma, Jun. 6, 2011; PMID:21644813), whether posiphen would reverse this pathological response using quantitative measures was tested in the vehicle or posiphen tartrate treated (10 mg/kg) rats from Example 2 (part of the brain from each of the euthanized rat was stained for tyrosine hydroxylase in Example 2 and another part of the brain was stained for microglia in Example 3). Microglial activation was assessed by quantitative measure of the diameter of IBA-1-positive cells, wherein IBA-1 stands for ionized calcium adaptor binding protein.
Analysis was done on a Leica DM-LB microscope with a Ludl XYZ motorized stage and z-axis microcator (MT12, Heidenheim, Traunreut, Germany) using StereoInvestigator software
(MicroBrightField, Colchester, VT). A contour was drawn to delineate the substantia nigra under the 5× objective lens to ensure anatomical accuracy. Following delineation, the diameters of microglial cell bodies were measured in the first counting frame (100 μm) and then in every fifth counting frame at 40× magnification. This sampling frequency was chosen in order to count approximately 30-50 IBA-1+ cells in each side of the substantia nigra. The first counting frame was always positioned in the upper left corner of the contour and systematically moved from left to right and from top to bottom until the entire delineated contour region was sampled. The number of IBA-1+ microglia cells with cell diameters ranging from 1 μm to 14 μm was then normalized to the total number counted in each section and expressed as a percentage of total microglia. The results are shown in FIG. 4 (wherein the percent of IBA-1+ cells was plotted on the vertical axis, and the microglial cell diameter in um was plotted on the horizontal axis). In FIG. 4, the blank portion of each data bar represents the mean % of IB A-1+ cells with the solid or striped portion at the top of the bar representing the 95% confidence interval. In each pair of data bars in FIG. 4, the bar on the left having a solid portion at the top represents data from the vehicle-treated group, while the bar on the right having a striped portion at the top represents data from the 10 mg/kg posiphen-treated group, wherein the data of the posiphen-treated group (the bar on the right) were compared with the data of the vehicle-treated group (the bar on the left) with Bootstrapping method. The asterisks (*) at the top of some of the bars of the 10 mg/kg posiphen-treated group indicate statistical significance at p<0.05 when compared with the data of the corresponding bar of the vehicle-treated group as analyzed with the Bootstrapping method. Posiphen increased the number of resting microglia and reduced the number of activated microglia.

[4] = test system: rats subjected to mild traumatic brain injury; test: Working memory test in Morris water maze after fluid percussion injury; format: in vivo
Method: The vehicle or posiphen tartrate treated rats from Example 2 were also subjected to working memory test in Morris water maze. Each of the rats was individually tested in the Morris water maze, which had 4 release points for putting the rat into the water and 4 platforms for the rat to swim to. For a total of 3 consecutive days (on one and two days before the last vehicle or posiphen treatment, and also on the day of the last vehicle or posiphen treatment before euthanasia), the rats were tested on their ability to find the 4 platform positions, using paired trials (4 paired trials per day). In each pair of the trials, the first trial was the learning trial, for the rat to learn the position of a platform, and the second trial was the memory trial for testing the memory of the rat to swim to the platform that the rat learned in the learning trial. In the learning trial, each of the rats was allowed a maximum swim time of 90 seconds to swim to the platform, and guided to the platform if needed after 90 seconds. The memory trial was started 5 seconds after the completion of the learning trial and the time for the rat to reach the platform by swimming in the maze in the memory trial was recorded. The 4 platform positions were switched after every pair of trials. The time interval between the learning trials of two consecutive pairs of trials in a day was 5 minutes. […]

## CN1CC[C@]2(C)c3cc(OC(=O)Nc4ccccc4)ccc3N(C)C12 (stereo partly drawn) [posiphen, (3aR)-1,3a,8-trimethyl-1,2,3,3a,8,8a-hexahydropyrrolo[2,3-b]indol-5-yl phenylcarbamate]
[1]
  number of dead nerve cells in retina of IR eye (IR-Pos) versus opposite eye (control-Pos): only slightly more
[1]; eye subjected to transient IR (IR-Pos), N=6
  retinal neurons rescued: 72%
[2]; 2.5, 5 and 10 mg/kg i.p. daily for 28 to 32 days, all 3 doses
  number of surviving cells in the ipsilateral area of the brain (striatum): statistically significant increase
[2]; all posiphen-treated groups (2.5, 5, 10 mg/kg), one-way ANOVA, p<0.05
  TH+ fluorescence intensity versus vehicle-treated group: significantly higher
[2]; highest dose of 10 mg/kg i.p. daily
  number of nerve cells of the striatum in the contralateral part of the brain: an increase
[2]; posiphen treated animals, ipsilateral side
  protection of the TH+ cells in ipsilateral striatum (whole, rostral, medial and caudal): full protection
[2]; rat, in vivo
  FPI-induced decrease in the TH+ terminals in the striatum: attenuated
[3]
  brain inflammation after traumatic brain injury: decreased
[3]; statistically significant
  FPI-increased microglia activation in the substantia nigra ipsilateral to the injury: attenuated
[3]; versus vehicle-treated group
  number of activated microglia: reduced
  number of resting microglia: increased
[4]; 2.5 mg/kg and 5 mg/kg, p=0.0961
  latency to find the platform versus vehicle-treated group: non-significant trend toward a reduction
[4]; 10 mg/kg, p=0.0335
  latency to reach the platform in memory trials versus vehicle-treated group: amelioration of this deficit
